The structures appear in SMILES notation.

A short description of series [1]: Drug level in human liver microsomes treated with 4-(3-chloro-4-(hydroxymethyl)phenoxy)-3-cyano-N-(5-fluoropyridin-2-yl)benzenesulfonamide. It is filed as ADME.
A short description of series [2]: Drug level in human hepatocytes treated with 4-(3-chloro-4-(hydroxymethyl)phenoxy)-3-cyano-N-(5-fluoropyridin-2-yl)benzenesulfonamide. It is filed as ADME, cell-based, Hepatocyte.

As to `N#Cc1cc(S(=O)(=O)Nc2ccc(F)cn2)ccc1Oc1ccc(C(=O)O)c(Cl)c1`, the Drug metabolism result in series [1] and in series [2] was “Metabolite_Detected” in each case.

(Values after ChEMBL document CHEMBL3853264 (Medchemcomm, 2016).)
